≈ marks a conversion by molar mass, not a printed value.

Experimental findings from ChEMBL document CHEMBL4219183, “Novel purine benzimidazoles as antimicrobial agents by regulating ROS generation and targeting clinically resistant Staphylococcus aureus DNA groove” (Bioorg Med Chem Lett, 2018) are described below.

Format in all cases: functional
Assay [1] has as its system Staphylococcus aureus. The experiment in a line: Antibacterial activity against Staphylococcus aureus ATCC 29213 after 24 hrs by two fold serial dilution method. The settings on record: ATCC 29213, 24 h.
For assay [2], the system named is Enterococcus faecalis. The experiment in a line: Antibacterial activity against Enterococcus faecalis after 24 hrs by two fold serial dilution method.
For assay [3], the system named is Candida tropicalis. The experiment in a line: Antifungal activity against Candida tropicalis after 24 hrs by two fold serial dilution method.
Assay [4] concerns Pseudomonas aeruginosa. The assay can be described thus: Antibacterial activity against Pseudomonas aeruginosa after 24 hrs by two fold serial dilution method.
Assay [5] relates to Pseudomonas aeruginosa. The assay can be described thus: Antibacterial activity against Pseudomonas aeruginosa ATCC 27853 after 24 hrs by two fold serial dilution method. The settings on record: ATCC 27853, 24 h.
In assay [6] the test system is Klebsiella pneumoniae. The experiment in a line: Antibacterial activity against Klebsiella pneumoniae after 24 hrs by two fold serial dilution method.
Assay [7] concerns Escherichia coli. The assay can be described thus: Antibacterial activity against Escherichia coli after 24 hrs by two fold serial dilution method.
Assay [8] deals with Candida albicans. The assay can be described thus: Antifungal activity against Candida albicans after 24 hrs by two fold serial dilution method.
In assay [9] the test system is Staphylococcus aureus. The experiment in a line: Antibacterial activity against Staphylococcus aureus ATCC 25923 after 24 hrs by two fold serial dilution method. The settings on record: ATCC 25923, 24 h.
Assay [10] has as its system Candida parapsilosis. The assay can be described thus: Antifungal activity against Candida parapsilosis ATCC 22019 after 24 hrs by two fold serial dilution method. The settings on record: ATCC 22019, 24 h.
For assay [11], the system named is Acinetobacter baumannii. The assay can be described thus: Antibacterial activity against Acinetobacter baumannii after 24 hrs by two fold serial dilution method.
The subject of assay [12] is Staphylococcus aureus. The experiment in a line: Antibacterial activity against methicillin-resistant Staphylococcus aureus N315 after 24 hrs by two fold serial dilution method. The settings on record: N315, 24 h.
For assay [13], the system named is Candida albicans. The assay can be described thus: Antifungal activity against Candida albicans ATCC 90023 after 24 hrs by two fold serial dilution method. The settings on record: ATCC 90023, 24 h.
In assay [14] the test system is Escherichia coli. The assay can be described thus: Antibacterial activity against Escherichia coli ATCC 25922 after 24 hrs by two fold serial dilution method. Conditions: ATCC 25922, 24 h.
Assay [15] concerns Staphylococcus aureus. The assay can be described thus: Antibacterial activity against Staphylococcus aureus after 24 hrs by two fold serial dilution method.
The subject of assay [16] is Aspergillus fumigatus. The assay can be described thus: Antifungal activity against Aspergillus fumigatus after 24 hrs by two fold serial dilution method.

One may read the MIC as the lowest concentration that inhibits growth of the organism. Low readings indicate greater potency, high ones weaker potency. A word on the MIC80: it is an inhibitory concentration at the 80% level, which refers to growth in some studies and to a panel of isolates in others. Read a low MIC80 as higher susceptibility. With `c1nc2nc[nH]c(N3CCCC3)c-2n1`, the MIC worked out at 512 µg/mL (≈ 2710 µM) in assay [1]; 512 µg/mL (≈ 2710 µM) in assay [2]; 256 µg/mL (≈ 1350 µM) in assay [4]; 128 µg/mL (≈ 676 µM) in assay [5]; 512 µg/mL (≈ 2710 µM) in assay [6]; 256 µg/mL (≈ 1350 µM) in assay [7]. Also, the MIC turned out to be 512 µg/mL (≈ 2710 µM) in assay [9]; 256 µg/mL (≈ 1350 µM) in assay [11]; 512 µg/mL (≈ 2710 µM) in assay [12]; 256 µg/mL (≈ 1350 µM) in assay [14]; 64 µg/mL (≈ 338 µM) in assay [15]. In addition, the MIC80 turned out to be 128 µg/mL (≈ 676 µM) in [3]; 128 µg/mL (≈ 676 µM) in assay [8]; 512 µg/mL (≈ 2710 µM) in assay [10]; 256 µg/mL (≈ 1350 µM) in assay [13]; 64 µg/mL (≈ 338 µM) in [16].
On to `Clc1cccc(Cn2c(Cn3cnc4c(N5CCOCC5)ncnc43)nc3ccccc32)c1`, for which the MIC in [1] amounted to 128 µg/mL (≈ 278 µM); in assay [2] it was 128 µg/mL (≈ 278 µM); in assay [4] it was 512 µg/mL (≈ 1110 µM); in [5], 256 µg/mL (≈ 557 µM); in assay [6], 128 µg/mL (≈ 278 µM); in [7], 256 µg/mL (≈ 557 µM). In addition, the MIC worked out at 128 µg/mL (≈ 278 µM) in assay [9]; 256 µg/mL (≈ 557 µM) in [11]; 512 µg/mL (≈ 1110 µM) in assay [12]; 256 µg/mL (≈ 557 µM) in assay [14]; 256 µg/mL (≈ 557 µM) in assay [15]. Also, the MIC80 in assay [3] worked out at 128 µg/mL (≈ 278 µM); in assay [8], 512 µg/mL (≈ 1110 µM); in [10] it was 512 µg/mL (≈ 1110 µM); in assay [13], 128 µg/mL (≈ 278 µM); in assay [16], 256 µg/mL (≈ 557 µM).
Take `CCCCCCCCCCCCn1c(Cn2cnc3c(N4CCOCC4)ncnc32)nc2ccccc21`: the MIC in assay [1] turned out to be 512 µg/mL (≈ 1020 µM); in [2], 128 µg/mL (≈ 254 µM); in assay [4] it was 128 µg/mL (≈ 254 µM); in assay [5], 128 µg/mL (≈ 254 µM); in assay [6], 256 µg/mL (≈ 508 µM); in assay [7] it was 32 µg/mL (≈ 63.5 µM). The MIC in [9] was 512 µg/mL (≈ 1020 µM); in assay [11], 512 µg/mL (≈ 1020 µM); in assay [12], 512 µg/mL (≈ 1020 µM); in assay [14], 256 µg/mL (≈ 508 µM); in [15], 16 µg/mL (≈ 31.8 µM). For the same compound, the MIC80 worked out at 64 µg/mL (≈ 127 µM) in assay [3]; 256 µg/mL (≈ 508 µM) in assay [8]; 256 µg/mL (≈ 508 µM) in [10]; 64 µg/mL (≈ 127 µM) in assay [13]; 256 µg/mL (≈ 508 µM) in assay [16].
Turning to `Cc1nc2ccccc2n1CCn1cnc2c(N3CCOCC3)ncnc21`, the MIC is 128 µg/mL (≈ 352 µM) in assay [1]; 256 µg/mL (≈ 704 µM) in [2]; 256 µg/mL (≈ 704 µM) in [4]; 256 µg/mL (≈ 704 µM) in assay [5]; 256 µg/mL (≈ 704 µM) in [6]; 512 µg/mL (≈ 1410 µM) in assay [7]. Besides, the MIC in assay [9] is 32 µg/mL (≈ 88.1 µM); in [11] it was 256 µg/mL (≈ 704 µM); in assay [12], 512 µg/mL (≈ 1410 µM); in assay [14] it was 256 µg/mL (≈ 704 µM); in [15], 256 µg/mL (≈ 704 µM). In addition, the MIC80 in assay [3] amounted to 256 µg/mL (≈ 704 µM); in [8], 128 µg/mL (≈ 352 µM); in assay [10], 512 µg/mL (≈ 1410 µM); in [13], 128 µg/mL (≈ 352 µM); in [16], 256 µg/mL (≈ 704 µM).
Consider `Cc1nc2cc([N+](=O)[O-])ccc2n1CCn1cnc2c(N3CCOCC3)ncnc21`, for which the MIC turned out to be 64 µg/mL (≈ 157 µM) in [1]; 128 µg/mL (≈ 313 µM) in assay [2]; 64 µg/mL (≈ 157 µM) in [4]; 64 µg/mL (≈ 157 µM) in [5]; 128 µg/mL (≈ 313 µM) in assay [6]; 128 µg/mL (≈ 313 µM) in assay [7]. The MIC in assay [9] was determined as 128 µg/mL (≈ 313 µM); in assay [11] it was 32 µg/mL (≈ 78.4 µM); in [12], 256 µg/mL (≈ 627 µM); in assay [14], 16 µg/mL (≈ 39.2 µM); in assay [15], 16 µg/mL (≈ 39.2 µM). The MIC80 worked out at 64 µg/mL (≈ 157 µM) in [3]; 512 µg/mL (≈ 1250 µM) in assay [8]; 256 µg/mL (≈ 627 µM) in assay [10]; 256 µg/mL (≈ 627 µM) in [13]; 128 µg/mL (≈ 313 µM) in assay [16].
`CCCCCCn1c(Cn2cnc3c(N4CCCCC4)ncnc32)nc2ccccc21`: the MIC in assay [1] was determined as 512 µg/mL (≈ 1230 µM); in assay [2] it was 128 µg/mL (≈ 307 µM); in [4], 128 µg/mL (≈ 307 µM); in assay [5], 128 µg/mL (≈ 307 µM); in assay [6], 64 µg/mL (≈ 153 µM); in assay [7] it was 256 µg/mL (≈ 613 µM). Also, the MIC is 64 µg/mL (≈ 153 µM) in assay [9]; 64 µg/mL (≈ 153 µM) in [11]; 64 µg/mL (≈ 153 µM) in assay [12]; 16 µg/mL (≈ 38.3 µM) in [14]; 16 µg/mL (≈ 38.3 µM) in assay [15]. Further, the MIC80 amounted to 64 µg/mL (≈ 153 µM) in assay [3]; 64 µg/mL (≈ 153 µM) in assay [8]; 64 µg/mL (≈ 153 µM) in [10]; 32 µg/mL (≈ 76.6 µM) in [13]; 128 µg/mL (≈ 307 µM) in assay [16].
